# Where “and” joins values, the source holds several entries; their conditions need not be identical. Identical values can stand only once. Like-named read-outs stand apart in the source and are kept apart here.
# How the values were obtained:
# [1] = system: platelet aggregation in whole blood, activation by TRAP-6; assay: Multiplate whole blood aggregometry, TRAP test, blood supplemented with betaine (Example 1); format: cell-based, human (CAD patients); set-up: TRAP aggregation / TRAP aggregation, mean: unit not given here; details: for TRAP aggregation / TRAP aggregation, mean: betaine 50 μg/ml; for inhibition at 50 µg/mL: Homo sapiens, Platelet, betaine 50 μg/ml vs. saline
# Protocol: (§1) Protocol Blood of 24 CAD patients on Aspirin or Aspirin+Clopidogrel is supplemented with saline or Betaine (50 μg/ml) and tested for Whole Blood Aggregometry using a Multiplate® (Dynabyte Informations System GmbH, Munich) whole blood aggregometer different agonists where used i.e.:
# (§2) ASPI test: Activation by arachidonic acid to detect Aspirin effects. COL test: Collagen activates the collagen receptor, which leads to a release of endogenous arachidonic acid, which is converted to TXA2 and activates the platelet. ADP test: ADP stimulates platelet activation by the ADP receptors. The most important ADP receptor (P2Y12) is blocked by clopidogrel, prasugrel and ticlopidine. TRAP test: TRAP-6 stimulates the thrombin receptor on the platelet surface. TRAP test allows detecting GPIIb/IIIa antagonists.
# [2] = system: whole blood aggregation, ADP; assay: Whole blood aggregation (Multiplate) ADP test before and one hour after oral betaine (Example 11); format: in vivo, human (patients); details: for ADP aggregation (AUC): individual patients (one line per patient), one hour after 4 g betaine oral, on aspirin 100 mg/day
# Protocol: (§3) 20 patients attending Hospital cardiovascular consultation were enrolled for the study. Patients were all on 100 mg/day aspirin for their cardiovascular protection. Necessary ethical clearance was obtained from Hospital IRB.
# (§4) Whole blood aggregation profile using Multiplate® instrument was assessed for each patient before and one hour after oral administration of 4 g of betaine. Blood was sampled on hirudin as anticoagulant.
# (§5) Using the different test procedures available for the Multiplate® comprehensive information on platelet function and antiplatelet effects of betaine vs. basal values was assessed. Agonists were prepared in 1 ml solutions according to Multiplatc technical sheets and were used in the following volumes or concentrations: ASPI test: 20 μL, COL test: 20 μL, TRAP test: 20 μL, ADP test: 20 μL, RISTO test: 40 μL (1.2 mg/ml).
# [3] = system: whole blood aggregation, Ristocetin; assay: Whole blood aggregation (Multiplate) RISTO test before and one hour after oral betaine (Example 11); format: in vivo, human (patients); details: for Ristocetin aggregation (AUC): individual patients (one line per patient), one hour after 4 g betaine oral, on aspirin 100 mg/day
# Protocol: as §3, §4, §5
# [4] = system: platelet aggregation in whole blood, activation by collagen; assay: Multiplate whole blood aggregometry, COL test, blood supplemented with betaine (Example 1); format: cell-based, human (CAD patients); set-up: Collagen aggregation / Collagen aggregation, mean: unit not given here; details: for Collagen aggregation / Collagen aggregation, mean: betaine 50 μg/ml; for inhibition at 50 µg/mL: Homo sapiens, Platelet
# Protocol: as §1, §2
# [5] = system: whole blood aggregation, TRAP test; assay: Whole blood aggregation (Multiplate) TRAP test before and one hour after oral betaine (Example 11); format: in vivo, human (patients); details: for TRAP aggregation (AUC): individual patients (one line per patient), one hour after 4 g betaine oral, on aspirin 100 mg/day
# Protocol: as §3, §4, §5
# [6] = system: whole blood aggregation, Collagen; assay: Whole blood aggregation (Multiplate) COL test before and one hour after oral betaine (Example 11); format: in vivo, human (patients); details: for Collagen aggregation (AUC): individual patients (one line per patient), one hour after 4 g betaine oral, on aspirin 100 mg/day
# Protocol: as §3, §4, §5
# [7] = system: platelet aggregation in whole blood, activation by ADP; assay: Multiplate whole blood aggregometry, ADP test, blood supplemented with betaine (Example 1); format: cell-based, human (CAD patients); set-up: ADP aggregation / ADP aggregation, mean: unit not given here; details: for ADP aggregation / ADP aggregation, mean: betaine 50 μg/ml; for inhibition at 50 µg/mL: Homo sapiens, Platelet, betaine 50 μg/ml vs. saline
# Protocol: as §1, §2
# [8] = system: platelet aggregation in whole blood, activation by arachidonic acid; assay: Multiplate whole blood aggregometry, ASPI test, blood supplemented with betaine (Example 1); format: cell-based, human (CAD patients); set-up: AspiTest aggregation / AspiTest aggregation, mean: unit not given here; details: for AspiTest aggregation / AspiTest aggregation, mean: betaine 50 μg/ml; for inhibition at 50 µg/mL: Homo sapiens, Platelet
# Protocol: as §1, §2
# [9] = system: whole blood aggregation, AspiTest (arachidonic acid); assay: Whole blood aggregation (Multiplate) ASPI test before and one hour after oral betaine (Example 11); format: in vivo, human (patients); details: for AspiTest aggregation (AUC): individual patients (one line per patient), one hour after 4 g betaine oral, on aspirin 100 mg/day
# Protocol: as §3, §4, §5
# [10] = ASA and ASA/clopidogrel non responders, individual patients (one line per patient)
# [11] = individual patients # 1-24 (one line per patient), blood of CAD patients on aspirin or aspirin+clopidogrel
# [12] = 20 patients, after 4 g betaine by oral route
# [13] = ASA responders, after 4 g betaine oral
# [14] = after 4 g betaine oral, patients on aspirin 100 mg/day
# [15] = betaine 50 μg/ml vs. saline, p<0.05
# [16] = ASA poor responders, after 4 g betaine oral
compound,measurement,setting,value
"C[N+](C)(C)CC(=O)O [betaine, glycine betaine of formula (CH3)3N^+(CH2) COO^−]",TRAP aggregation,[1]; [10],155 and 141 and 93 and 179 and 120 and 100 and 67 and 103 (2×) and 29
same,inhibition at 50 µg/mL,"[1]; ASA and ASA/clopidogrel non responders, P (Student) 0.093, read-out: Additional inhibition, TRAP",19%
same,inhibition at 50 µg/mL,"[1]; all patients, P (Student) 0.0392, read-out: Betaine additional inhibition, TRAP",13%
same,TRAP aggregation,[1]; [11],60 (2×) and 102 and 79 and 67 and 103 (2×) and 87 and 84 and 31 and 153 and 152 and 29 and 155 and 141 and 83 and 30 and 22 and 93 and 179 and 120 and 100 and 127
same,"TRAP aggregation, mean","[1]; mean of 10 ASA and ASA/clopidogrel non responders, saline mean 133.7",109
same,"TRAP aggregation, mean","[1]; mean of patients, saline mean 108",93.91
same,"Difference Vs. basal, ADP",[2]; [12],2%
same,"Mean of AUC aggregations, ADP","[2]; 20 patients, after 4 g betaine by oral route, basal mean 55.55",56.5
same,"Difference Vs. basal, ADP","[2]; ASA poor responders, after 4 g betaine oral, P Student 0.5",−7%
same,ADP aggregation (AUC),[2]; ASA poor responders,71 and 53 and 66 and 60 and 38 and 32 and 70 and 40
same,"Difference Vs. basal, ADP",[2]; [13],8%
same,ADP aggregation (AUC),[2]; ASA responders,2 and 121 and 64 (2×) and 80 and 93 and 14 and 51 and 47 and 44 and 75 and 45
same,"ADP aggregation, mean","[2]; mean of 8 ASA poor responders after 4 g betaine oral, basal mean 57.75",53.75
same,"ADP aggregation, mean","[2]; mean of 12 ASA responders after 4 g betaine oral, basal mean 54.08",58.33
same,"Difference Vs. basal, Ristocetin","[3]; 20 patients, after 4 g betaine by oral route, P Student 0.012",−37%
same,"Mean of AUC aggregations, Ristocetin","[3]; 20 patients, after 4 g betaine by oral route, basal mean 53.4",33.6
same,"Difference Vs. basal, Ristocetin","[3]; ASA poor responders, after 4 g betaine oral, P Student 0.22",−24%
same,Ristocetin aggregation (AUC),[3]; ASA poor responders,62 and 78 and 123 and 81 and 30 and 2 and 43 and 11
same,"Difference Vs. basal, Ristocetin","[3]; ASA responders, after 4 g betaine oral, P Student 0.031",−52%
same,Ristocetin aggregation (AUC),[3]; ASA responders,39 and 10 and 42 and 23 and 35 and 6 and 3 and 21 and 14 (2×) and 26 and 9
same,"effect on platelet function, ristocetin aggregation (agglutination)",[3]; [14],ameliorated significantly
same,"Ristocetin aggregation, mean","[3]; mean of 8 ASA poor responders after 4 g betaine oral, basal mean 70.75",53.75
same,"Ristocetin aggregation, mean","[3]; mean of 12 ASA responders after 4 g betaine oral, basal mean 41.83",20.17
same,Collagen aggregation,[4]; [10],42 and 30 and 76 and 91 (2×) and 75 (2×) and 88 and 21 and 24
same,inhibition at 50 µg/mL,"[4]; ASA and ASA/clopidogrel non responders, betaine 50 μg/ml vs. saline, P (Student) 0.0242, read-out: Additional inhibition, Collagen",17%
same,inhibition at 50 µg/mL,"[4]; all 24 patients, betaine 50 μg/ml vs. saline, P (Student) 0.0006, read-out: Betaine additional inhibition, Collagen",20%
same,synergistic effect with aspirin and/or clopidogrel on collagen,[4]; [15],significant
same,Collagen aggregation,[4]; [11],4 and 3 (2×) and 35 and 21 (2×) and 75 (2×) and 91 (2×) and 26 and 34 and 29 and 59 and 25 and 24 and 42 and 2 and 30 and 8 and 17 and 76 and 88 and 46
same,"Collagen aggregation, mean","[4]; mean of 10 ASA and ASA/clopidogrel non responders, saline mean 74.4",61.3
same,"Collagen aggregation, mean","[4]; mean of 24 patients, saline mean 48.46",38.54
same,"Difference Vs. basal, TRAP",[5]; [12],0%
same,"Mean of AUC aggregations, TRAP","[5]; 20 patients, after 4 g betaine by oral route, basal mean 91.95",91.9
same,"Difference Vs. basal, TRAP",[5]; [16],3%
same,TRAP aggregation (AUC),[5]; ASA poor responders,106 (2×) and 66 (2×) and 133 and 103 and 60 and 95
same,"Difference Vs. basal, TRAP",[5]; [13],−2%
same,TRAP aggregation (AUC),[5]; ASA responders,64 and 154 and 115 and 136 and 131 and 29 and 80 and 77 (2×) and 67 and 104 and 69
same,"TRAP aggregation, mean","[5]; mean of 8 ASA poor responders after 4 g betaine oral, basal mean 89",91.875
same,"TRAP aggregation, mean","[5]; mean of 12 ASA responders after 4 g betaine oral, basal mean 93.92",91.92
same,"Difference Vs. basal, Collagen","[6]; 20 patients, after 4 g betaine by oral route, P Student 0.045",−19%
same,"Mean of AUC aggregations, Collagen","[6]; 20 patients, after 4 g betaine by oral route, basal mean 30.35",24.65
same,"Difference Vs. basal, Collagen",[6]; [16],−1%
same,Collagen aggregation (AUC),[6]; ASA poor responders,47 and 48 and 32 and 18 and 10 and 58 and 65 and 57
same,"Difference Vs. basal, Collagen","[6]; ASA responders, after 4 g betaine oral, P Student 0.039",−41%
same,Collagen aggregation (AUC),[6]; ASA responders,11 and 7 and 29 and 12 and 23 and 4 and 10 (2×) and 3 (2×) and 30 and 16
same,"effect on platelet function, collagen aggregation",[6]; [14],ameliorated significantly
same,"Collagen aggregation, mean","[6]; mean of 8 ASA poor responders after 4 g betaine oral, basal mean 42.375",41.875
same,"Collagen aggregation, mean","[6]; mean of 12 ASA responders after 4 g betaine oral, basal mean 22.33",13.17
same,ADP aggregation,[7]; [10],173 and 70 and 89 (2×) and 86 and 90 and 63 and 77 and 83 and 56
same,inhibition at 50 µg/mL,"[7]; ASA and ASA/clopidogrel non responders, P (Student) 0.449, read-out: Additional inhibition, ADP",5%
same,inhibition at 50 µg/mL,"[7]; all patients, P (Student) 0.067, read-out: Betaine additional inhibition, ADP",8%
same,ADP aggregation,[7]; [11],44 and 1 and 68 and 46 and 63 and 77 and 82 and 57 and 83 and 100 and 81 and 56 and 173 and 4 and 70 and 29 and 6 and 13 and 89 (2×) and 86 and 90 and 115
same,"ADP aggregation, mean","[7]; mean of 10 ASA and ASA/clopidogrel non responders, saline mean 91.8",87.6
same,"ADP aggregation, mean","[7]; mean of patients, saline mean 71.78",66.17
same,AspiTest aggregation,[8]; [10],121 and 75 and 97 and 125 and 87 and 94 (2×) and 84 and 49 and 61
same,inhibition at 50 µg/mL,"[8]; ASA and ASA/clopidogrel non responders, betaine 50 μg/ml vs. saline, P (Student) 0.0043, read-out: Additional inhibition, AspiTest",20%
same,inhibition at 50 µg/mL,"[8]; all 24 patients, betaine 50 μg/ml vs. saline, P (Student) 0.0109, read-out: Betaine additional inhibition, AspiTest",17%
same,synergistic effect with aspirin and/or clopidogrel on AspiTest,[8]; [15],significant
same,AspiTest aggregation,[8]; [11],10 and 22 and 54 and 18 and 84 and 94 (2×) and 62 and 29 and 21 and 49 and 17 (2×) and 5 and 61 and 121 and 13 and 75 and 12 and 6 and 97 and 125 and 87 and 77
same,"AspiTest aggregation, mean","[8]; mean of 10 ASA and ASA/clopidogrel non responders, saline mean 111.1",88.7
same,"AspiTest aggregation, mean","[8]; mean of 24 patients, saline mean 62.54",52.08
same,"Difference Vs. basal, AspiTest","[9]; 20 patients, after 4 g betaine by oral route, P Student 0.57",5%
same,"Mean of AUC aggregations, AspiTest","[9]; 20 patients, after 4 g betaine by oral route, basal mean 23.05",24.15
same,"Difference Vs. basal, AspiTest",[9]; [16],3%
same,AspiTest aggregation (AUC),[9]; ASA poor responders,24 and 74 and 81 and 69 and 46 and 27 and 35 and 52
same,"Difference Vs. basal, AspiTest","[9]; ASA responders, after 4 g betaine oral, P Student 0.6",14%
same,AspiTest aggregation (AUC),[9]; ASA responders,11 and 7 and 4 (2×) and 9 (2×) and 5 and 1 and 3 (2×) and 6 and 13
same,"AspiTest aggregation, mean","[9]; mean of 8 ASA poor responders after 4 g betaine oral, basal mean 49.375",51
same,"AspiTest aggregation, mean","[9]; mean of 12 ASA responders after 4 g betaine oral, basal mean 5.5",6.25
